Data: publication PMC10294756 (Journal of Enzyme Inhibition and Medicinal Chemistry, 2023)
Like-named read-outs stand apart in the source and are kept apart here.

What was measured:
HepG2 = assay: MTT assay, HepG2 cells; assay type: cell-based, human; details: for IC50: read-out: IC50 HepG2
HuH7 = assay: MTT assay, HuH7 cells; assay type: cell-based, human; details: read-out: IC50 HuH7
SMMC-7721 = assay: MTT assay, SMMC-7721 cells; assay type: cell-based, human; details: read-out: IC50 SMMC-7721
[1] = system: HCC cell lines (HepG2, HuH7, and SMMC-7721); assay: MTT assay, results stated over the three HCC cell lines; assay type: cell-based; details: Homo sapiens, 48 h, read-out: IC50 against HCC cells (span over cell lines)
LO2 = assay: MTT assay, normal hepatocyte LO2; assay type: cell-based, human
[2] = Homo sapiens, L02, 48 h, read-out: IC50 LO2, normal liver cell line, MTT, 48 h
[3] = read-out: IC50 LO2, normal liver cell line, MTT, 48 h
[4] = MTT, 48 h, mean ± SD of three experiments

SMILES | IC50 (HepG2; Homo sapiens, HepG2, 48 h) [µM] | IC50 (HuH7; Homo sapiens, Huh-7, 48 h) [µM] | IC50 (SMMC-7721; Homo sapiens, SMMC-7721, 48 h) [µM] | IC50 [1] [µM] | IC50 (LO2; [2]) [µM] | IC50 (LO2; [3]) [µM] | IC50 (HepG2; [4]) [µM] | IC50 (HuH7; [4]) [µM] | IC50 (SMMC-7721; [4]) [µM] | effect on the inhibition of HepG2 cell proliferation by TMHA37 (HepG2; 20 μM CDIM8, 5 μM TMHA37, 48 h, MTT)
Cc1cc(Nc2ccc(C(=O)N/N=C/c3ccsc3)cc2)c2cccc(O)c2n1 [7A, (E)-4-((8-hydroxy-2-methylquinolin-4-yl)amino)-N'-(thiophen-3-ylmethylene)benzohydrazide] | 30.8 ± 2.52 | 31.7 ± 3.6 | 52.8 ± 1.56 | 30.8 to 52.8 | – | – | – | – | – | –
Cc1cc(Nc2ccc(C(=O)N/N=C/c3sccc3Br)cc2)c2cccc(O)c2n1 [7B, (E)-N'-((3-bromothiophen-2-yl)methylene)-4-((8-hydroxy-2-methylquinolin-4-yl)amino)benzohydrazide] | 16.2 ± 1.53 | 18 ± 1.26 | 26.1 ± 1 | < 30 | > 90 | – | – | – | – | –
Cc1cc(Nc2ccc(C(=O)N/N=C/c3cc(Br)cs3)cc2)c2cccc(O)c2n1 [7C, (E)-N'-((4-bromothiophen-2-yl)methylene)-4-((8-hydroxy-2-methylquinolin-4-yl)amino)benzohydrazide] | 16.4 ± 0.7 | 21.2 ± 2.28 | 16 ± 0.54 | < 30 | 21 ± 1.18 | – | – | – | – | –
CSc1ccc(/C=N/NC(=O)c2ccc(Nc3cc(C)nc4c(O)cccc34)cc2)cc1 [7E, (E)-4-((8-hydroxy-2-methylquinolin-4-yl)amino)-N'-(4-(methylthio)benzylidene)benzohydrazide] | 17.7 ± 0.3 | 25.6 ± 1.81 | 22.94 ± 0.03 | – | > 90 | – | – | – | – | –
Cc1cc(Nc2ccc(C(=O)N/N=C/c3ccccc3Cl)cc2)c2cccc(O)c2n1 [7F, (E)-N'-(2-chlorobenzylidene)-4-((8-hydroxy-2-methylquinolin-4-yl)amino)benzohydrazide] | 13.6 ± 2.14 | 22.3 ± 1.88 | 17.9 ± 1.03 | – | 15 ± 2.16 | – | – | – | – | –
Cc1cc(Nc2ccc(C(=O)N/N=C/c3cccc(C(F)(F)F)c3)cc2)c2cccc(O)c2n1 [7G, (E)-4-((8-hydroxy-2-methylquinolin-4-yl)amino)-N'-(3-(trifluoromethyl)benzylidene)benzohydrazide] | 15.5 ± 1.45 | 6.88 ± 2.04 | 20.6 ± 2.56 | – | 19.9 ± 2.01 | – | – | – | – | –
Cc1cc(Nc2ccc(C(=O)N/N=C/c3ccc(C(F)(F)F)cc3)cc2)c2cccc(O)c2n1 [7H, (E)-4-((8-hydroxy-2-methylquinolin-4-yl)amino)-N'-(4-(trifluoromethyl)benzylidene)benzohydrazide] | 18.1 ± 0.98 | 23.3 ± 0.33 | 27.68 ± 0.25 | – | > 90 | – | – | – | – | –
N.N.[Cl][Pt][Cl] [CDDP, Cisplatinum, reference compound] | – | – | – | – | – | 4.23 ± 0.52 | 2.21 ± 0.35 | 3.69 ± 0.55 | 1.58 ± 0.08 | –
Oc1ccc(C(c2c[nH]c3ccccc23)c2c[nH]c3ccccc23)cc1 [CDIM8, reference compound] | – | – | – | – | – | – | – | – | – | significantly reversed the inhibitory effect of TMHA37 on HepG2 cell proliferation
CC1=C(O)C(=O)C=C2C1=CC=C1[C@@]2(C)CC[C@@]2(C)[C@@H]3C[C@](C)(C(=O)O)CC[C@]3(C)CC[C@]12C [Celastrol, reference compound] | 18.6 ± 1.01 | 34.9 ± 2.21 | 16 ± 3.28 | – | – | – | – | – | – | –

Further lines, with some results ahead:

IC50 (HepG2; Homo sapiens, HepG2, 48 h) [µM] | IC50 (HuH7; Homo sapiens, Huh-7, 48 h) [µM] | IC50 (SMMC-7721; Homo sapiens, SMMC-7721, 48 h) [µM] | IC50 [1] [µM] | SMILES | IC50 (LO2; [2]) [µM] | IC50 (LO2; [3]) [µM] | IC50 (HepG2; [4]) [µM] | IC50 (HuH7; [4]) [µM] | IC50 (SMMC-7721; [4]) [µM] | effect on the inhibition of HepG2 cell proliferation by TMHA37 (HepG2; 20 μM CDIM8, 5 μM TMHA37, 48 h, MTT)
28.3 ± 1.17 | 12.8 ± 0.36 | 33.9 ± 3.58 | – | C#Cc1ccc(/C=N/NC(=O)c2ccc(Nc3cc(C)nc4c(O)cccc34)cc2)cc1 [7I, (E)-N'-(4-ethynylbenzylidene)-4-((8-hydroxy-2-methylquinolin-4-yl)amino)benzohydrazide] | – | – | – | – | – | –
27.5 ± 2.12 | 26 ± 0.54 | 37.2 ± 2.23 | – | COc1cc(/C=N/NC(=O)c2ccc(Nc3cc(C)nc4c(O)cccc34)cc2)cc(OC)c1 [7J, (E)-N’-(3,5-dimethoxybenzylidene)-4-((8-hydroxy-2-methylquinolin-4-yl)amino)benzohydrazide] | – | – | – | – | – | –
20.1 ± 1.18 | 34.6 ± 2.97 | 28.2 ± 2.06 | – | COc1ccc(F)c(/C=N/NC(=O)c2ccc(Nc3cc(C)nc4c(O)cccc34)cc2)c1 [7K, (E)-N'-(2-fluoro-5-methoxybenzylidene)-4-((8-hydroxy-2-methylquinolin-4-yl)amino)benzohydrazide] | – | – | – | – | – | –
21 ± 1.51 | 15.9 ± 2.8 | 25.4 ± 1.63 | – | Cc1cc(Nc2ccc(C(=O)N/N=C/c3cccc(F)c3F)cc2)c2cccc(O)c2n1 [7L, (E)-N'-(2,3-difluorobenzylidene)-4-((8-hydroxy-2-methylquinolin-4-yl)amino)benzohydrazide] | 25 ± 3.16 | – | – | – | – | –
15.8 ± 3.68 | 23.8 ± 1.82 | 18.2 ± 1.94 | 15.8 to 27.6 | Cc1cc(Nc2ccc(C(=O)N/N=C/c3ccc(Br)c(F)c3)cc2)c2cccc(O)c2n1 [7M, (E)-N'-(4-bromo-3-fluorobenzylidene)-4-((8-hydroxy-2-methylquinolin-4-yl)amino)benzohydrazide] | > 90 | – | – | – | – | –
27.6 ± 0.81 | 15.4 ± 2.09 | 21.1 ± 1.01 | 15.8 to 27.6 | Cc1cc(Nc2ccc(C(=O)N/N=C/c3ccc(F)c(Br)c3)cc2)c2cccc(O)c2n1 [7N, (E)-N'-(3-bromo-4-fluorobenzylidene)-4-((8-hydroxy-2-methylquinolin-4-yl)amino)benzohydrazide] | > 90 | – | – | – | – | –
15.7 ± 1.31 | 13.7 ± 0.61 | 16.9 ± 1.97 | – | Cc1cc(Nc2ccc(C(=O)N/N=C/c3ccc(F)cc3Br)cc2)c2cccc(O)c2n1 [7O, (E)-N'-(2-bromo-4-fluorobenzylidene)-4-((8-hydroxy-2-methylquinolin-4-yl)amino)benzohydrazide] | 69.2 ± 4.58 | – | – | – | – | –
7.78 ± 1.33 | 19.3 ± 1.49 | 8.82 ± 0.41 | 7.78 to 19.3 | Cc1cc(Nc2ccc(C(=O)N/N=C/c3cc(C(F)(F)F)ccc3F)cc2)c2cccc(O)c2n1 [7P, (E)-N'-(2-fluoro-5-(trifluoromethyl)benzylidene)-4-((8-hydroxy-2-methylquinolin-4-yl)amino)benzohydrazide] | 18 ± 1.55 | – | – | – | – | –
12.7 ± 1.61 | 29.2 ± 3.24 | 21.6 ± 1.13 | – | Cc1cc(Nc2ccc(C(=O)N/N=C/c3ccc(F)c(C(F)(F)F)c3)cc2)c2cccc(O)c2n1 [7Q, (E)-N'-(4-fluoro-3-(trifluoromethyl)benzylidene)-4-((8-hydroxy-2-methylquinolin-4-yl)amino)benzohydrazide] | 4.82 ± 0.67 | – | – | – | – | –
30 ± 0.92 | 32.2 ± 4.3 | 45.8 ± 0.64 | 30 to 45.8 | Cc1cc(Nc2ccc(C(=O)N/N=C/c3cccc(Br)n3)cc2)c2cccc(O)c2n1 [7R, (E)-N'-((6-bromopyridin-2-yl)methylene)-4-((8-hydroxy-2-methylquinolin-4-yl)amino)benzohydrazide] | – | – | – | – | – | –
15.6 ± 1.65 | 16.2 ± 0.66 | 22.3 ± 0.98 | 15 to 23.9 | Cc1cc(Nc2ccc(C(=O)N/N=C/c3ccc4ccccc4c3)cc2)c2cccc(O)c2n1 [7S, (E)-4-((8-hydroxy-2-methylquinolin-4-yl)amino)-N'-(naphthalen-2-ylmethylene)benzohydrazide] | > 60 | 66.3 ± 8.68 | – | – | – | –
15 ± 4.75 | 20.9 ± 2.46 | 23.9 ± 2.16 | 15 to 23.9 | COc1ccc(/C=N/NC(=O)c2ccc(Nc3cc(C)nc4c(O)cccc34)cc2)c2ccccc12 [7T, (E)-4-((8-hydroxy-2-methylquinolin-4-yl)amino)-N'-((4-methoxynaphthalen-1-yl)methylene)benzohydrazide] | > 60 | 60.7 ± 0.98 | – | – | – | –
17.6 ± 1.09 | 30.9 ± 3.39 | 19.9 ± 0.94 | – | Cc1cc(Nc2ccc(C(=O)N/N=C/c3cc4ccccc4nc3Cl)cc2)c2cccc(O)c2n1 [7U, (E)-N'-((2-chloroquinolin-3-yl)methylene)-4-((8-hydroxy-2-methylquinolin-4-yl)amino)benzohydrazide] | 18 ± 1.29 | – | – | – | – | –
13.7 ± 2.85 | 20.4 ± 2.75 | 21.7 ± 1.96 | – | Cc1cc(Nc2ccc(C(=O)N/N=C/c3csc4ccccc34)cc2)c2cccc(O)c2n1 [7V, (E)-N'-(benzo[b]thiophen-3-ylmethylene)-4-((8-hydroxy-2-methylquinolin-4-yl)amino)benzohydrazide] | 3.06 ± 0.11 | – | – | – | – | –
